Reference: patent US7981893B2, “Heteroaryl compounds, compositions thereof, and methods of treatment therewith” (Signal Pharmaceuticals, LLC, priority 2006, dated 2011)

molecular target: T1, PKCθ (Homo sapiens, UniProt Q04759); test: PKCθ IMAP Assay; type: biochemical; conditions: IMAP fluorescence polarization screening assay, 35 μM ATP
T1 construct: purchased Invitrogen
Method: The following is an example of an assay that can be used to determine the PKCθ inhibitory activity of a test compound. Reagents are prepared as follows:
Assay Buffer: 50 mM HEPES (pH 7.6), 10 mM MgCl, 0.1 mM EDTA, 5 mM MBP, 0.01% Triton, 1 mM DTT, 0.05 mg/ml phosphatidyl serine, 0.05 mg/ml diacylglycerol.
The final concentration of PKCθ (Invitrogen) is 0.5 nM. The final concentration of substrate (FAM-AKRRRLSSLRA) (Molecular Devices) is 100 nM. The final concentration of ATP in the reaction is 35 μM. The final concentration of DMSO in the reaction is 2.5%.
Enzyme is kept in 5 μl aliquots and stored at −80° C. prior to use. Test compound is allowed to pre-incubate with enzyme for 45 minutes before the reactions is initiated.
The reaction mixture consists of: 5 μl of test compound in 10% DMSO, 5 μl of 400 nM substrate (FAM-AKRRRLSSLRA), 5 μl of […] PKCθ, and 5 μl of 140 μM ATP (ATP is added to the reaction mixture last to initiate the reaction) per well.
The reaction is allowed to proceed for 60 minutes and is terminated by adding 30 μl per well of 90% Progressive A buffer/10% Progressive B buffer and a 1:400 dilution of binding beeds (Molecular Devices).
The reaction is given a binding incubation time of at least 30 minutes prior to reading the fluorescence polarization signal on an Analyst reader (the following detector settings are used: fluorescein excitation-485 nm, fluorescein emission-530 nm, fluorescein dichroic-505 nm).

T1 sequence (Q04759 whole entry): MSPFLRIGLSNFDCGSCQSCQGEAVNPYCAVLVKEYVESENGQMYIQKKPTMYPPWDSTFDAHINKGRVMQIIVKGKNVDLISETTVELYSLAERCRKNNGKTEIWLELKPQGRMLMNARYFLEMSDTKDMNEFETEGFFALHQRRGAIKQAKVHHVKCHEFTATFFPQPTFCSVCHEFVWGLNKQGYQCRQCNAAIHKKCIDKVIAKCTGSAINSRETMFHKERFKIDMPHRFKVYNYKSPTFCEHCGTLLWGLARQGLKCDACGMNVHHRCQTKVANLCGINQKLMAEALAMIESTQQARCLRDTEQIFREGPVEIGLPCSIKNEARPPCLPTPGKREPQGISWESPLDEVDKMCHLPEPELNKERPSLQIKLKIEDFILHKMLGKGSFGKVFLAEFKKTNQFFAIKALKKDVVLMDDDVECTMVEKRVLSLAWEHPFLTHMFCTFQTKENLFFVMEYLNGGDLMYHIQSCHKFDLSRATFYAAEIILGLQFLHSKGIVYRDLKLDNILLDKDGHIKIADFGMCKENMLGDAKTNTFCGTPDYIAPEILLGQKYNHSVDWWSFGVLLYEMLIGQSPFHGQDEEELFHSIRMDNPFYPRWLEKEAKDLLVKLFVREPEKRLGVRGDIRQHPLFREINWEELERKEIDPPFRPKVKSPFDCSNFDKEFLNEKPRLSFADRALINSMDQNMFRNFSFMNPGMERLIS

`COc1ccc(C(C)C)cc1-c1cnc2[nH]c(=O)n([C@@H]3CCOC3)c2n1` [Compound 32, (R)-6-(5-isopropyl-2-methoxyphenyl)-1-(tetrahydrofuran-3-yl)-1H-imidazo[4,5-b]pyrazin-2(3H)-one] and `COc1ccc(C(C)C)cc1-c1cnc2[nH]c(=O)n(C3CCCOC3)c2n1` (stereo not drawn) [Compound 46, 6-(5-isopropyl-2-methoxyphenyl)-1-(tetrahydro-2H-pyran-3-yl)-1H-imidazo[4,5-b]pyrazin-2(3H)-one] fall in the same range of IC50: 10.1 to 20 µM for the first, 10.1 to 20 µM for the second.

Compared with `CC(C)c1cccc(-c2cnc3[nH]c(=O)n(C(C)C)c3n2)c1` [Compound 37, 1-isopropyl-6-(3-isopropylphenyl)-1H-imidazo[4,5-b]pyrazin-2(3H)-one], `COc1ccc(C(C)C)cc1-c1cnc2[nH]c(=O)n(C(C)C)c2n1` [Compound 18, 1-isopropyl-6-(5-isopropyl-2-methoxyphenyl)-1H-imidazo[4,5-b]pyrazin-2(3H)-one] is lower in IC50: over 30 µM for the first, 5.1 to 10 µM for the second.

`C[C@H](c1ccccc1)n1c(=O)[nH]c2ncc(-c3cccc4ncccc34)cc21` [Compound 62, (R)-1-(1-phenylethyl)-6-(quinolin-5-yl)-1H-imidazo[4,5-b]pyridin-2(3H)-one] and `CC[C@@H](c1ccccc1)n1c(=O)[nH]c2ncc(-c3cccc4ncccc34)nc21` [Compound 44, (S)-1-(1-phenylpropyl)-6-(quinolin-5-yl)-1H-imidazo[4,5-b]pyrazin-2(3H)-one] cannot be ordered by IC50: over 30 µM for the first, over 30 µM for the second.

`COc1ccccc1-c1cnc2[nH]c(=O)n(C(C)C)c2n1` [Compound 38, 1-isopropyl-6-(2-methoxyphenyl)-1H-imidazo[4,5-b]pyrazin-2(3H)-one] and `COc1ccc(C(C)C)cc1-c1cnc2[nH]c(=O)n(CCO)c2n1` [Compound 22, 1-(2-hydroxyethyl)-6-(5-isopropyl-2-methoxyphenyl)-1H-imidazo[4,5-b]pyrazin-2(3H)-one] cannot be ordered by IC50: over 30 µM for the first, over 30 µM for the second.

`COc1ccc(C(C)C)cc1-c1cnc2[nH]c(=O)n(CC3CCCC3)c2n1` [Compound 34, 1-(cyclopentylmethyl)-6-(5-isopropyl-2-methoxyphenyl)-1H-imidazo[4,5-b]pyrazin-2(3H)-one] and `COc1ccc(C(C)C)cc1-c1cnc2[nH]c(=O)n(C3CCCC3)c2n1` [Compound 31, 1-cyclopentyl-6-(5-isopropyl-2-methoxyphenyl)-1H-imidazo[4,5-b]pyrazin-2(3H)-one] cannot be ordered by IC50: over 30 µM for the first, over 30 µM for the second.

`COc1ccc(C(C)C)cc1-c1cnc2[nH]c(=O)n(C3CCCCC3)c2n1` [Compound 19, 1-cyclohexyl-6-(5-isopropyl-2-methoxyphenyl)-1H-imidazo[4,5-b]pyrazin-2(3H)-one] and `COc1ccc(C(C)C)cc1-c1cnc2[nH]c(=O)n(C3CCOCC3)c2n1` [Compound 23, 6-(5-isopropyl-2-methoxyphenyl)-1-(tetrahydro-2H-pyran-4-yl)-1H-imidazo[4,5-b]pyrazin-2(3H)-one] cannot be ordered by IC50: over 30 µM for the first, over 30 µM for the second.

`CC(c1ccccc1)n1c(=O)[nH]c2ncc(-c3ccc(NS(C)(=O)=O)cc3)nc21` (stereo not drawn) [Compound 78, N-(4-(2-oxo-3-(1-phenylethyl)-2,3-dihydro-1H-imidazo[4,5-b]pyrazin-5-yl)phenyl)methanesulfonamide] and `C[C@H](c1ccccc1)n1c(=O)[nH]c2ncc(-c3cccc4ccccc34)nc21` [Compound 3, (R)-6-(naphthalen-1-yl)-1-(1-phenylethyl)-1H-imidazo[4,5-b]pyrazin-2(3H)-one] cannot be ordered by IC50: over 30 µM for the first, over 30 µM for the second.

`CC(C)[C@H](CO)n1c(=O)[nH]c2ncc(-c3ccccc3)nc21` [Compound 9, (R)-1-(1-hydroxy-3-methylbutan-2-yl)-6-phenyl-1H-imidazo[4,5-b]pyrazin-2(3H)-one] and `CC(C)[C@H](CO)n1c(=O)[nH]c2ncc(-c3cccc4ncccc34)nc21` [Compound 12, (R)-1-(1-hydroxy-3-methylbutan-2-yl)-6-(quinolin-5-yl)-1H-imidazo[4,5-b]pyrazin-2(3H)-one] cannot be ordered by IC50: over 30 µM for the first, over 30 µM for the second.

First: O=c1[nH]c2ncc(-c3cccc4ncccc34)nc2n1C1CCC(CO)CC1 (stereo not drawn) [Compound 77, 1-((1s,4s)-4-(hydroxymethyl)cyclohexyl)-6-(quinolin-5-yl)-1H-imidazo[4,5-b]pyrazin-2(3H)-one]
Second: O=c1[nH]c2ncc(-c3cccc4ncccc34)nc2[nH]1 [Compound 20, 5-(quinolin-5-yl)-1H-imidazo[4,5-b]pyrazin-2(3H)-one]
The IC50 of the first is lower: 20.1 to 30 µM for the first, over 30 µM for the second.

`COc1ccc(C(C)C)cc1-c1ccc2[nH]c(=O)n([C@H](CO)C(C)C)c2n1` [Compound 39, (S)-3-(1-hydroxy-3-methylbutan-2-yl)-5-(5-isopropyl-2-methoxyphenyl)-1H-imidazo[4,5-b]pyridin-2(3H)-one] and `COc1ccc(C(C)C)cc1-c1cnc2[nH]c(=O)n(CC(C)C)c2n1` [Compound 21, 1-isobutyl-6-(5-isopropyl-2-methoxyphenyl)-1H-imidazo[4,5-b]pyrazin-2(3H)-one] cannot be ordered by IC50: over 30 µM for the first, over 30 µM for the second.

First: O=c1[nH]c2ncc(-c3cccc4ncccc34)nc2n1C(c1ccccc1)c1ccccc1 [Compound 43, 1-benzhydryl-6-(quinolin-5-yl)-1H-imidazo[4,5-b]pyrazin-2(3H)-one]
Second: CC(c1ccccn1)n1c(=O)[nH]c2ncc(-c3cccc4ncccc34)nc21 (stereo not drawn) [Compound 75, 1-(1-(pyridin-2-yl)ethyl)-6-(quinolin-5-yl)-1H-imidazo[4,5-b]pyrazin-2(3H)-one]
The IC50 of the first is higher: over 30 µM for the first, 10.1 to 20 µM for the second. The second is the more potent here.

Compared with `C[C@H](c1ccccc1)n1c(=O)n(C)c2ncc(-c3cccc4ncccc34)nc21` [Compound 48, (R)-1-methyl-3-(1-phenylethyl)-5-(quinolin-5-yl)-1H-imidazo[4,5-b]pyrazin-2(3H)-one], `CC(c1cccnc1)n1c(=O)[nH]c2ncc(-c3cccc4ncccc34)nc21` (stereo not drawn) [Compound 76, 1-(1-(pyridin-3-yl)ethyl)-6-(quinolin-5-yl)-1H-imidazo[4,5-b]pyrazin-2(3H)-one] is lower in IC50: over 30 µM for the first, 5.1 to 10 µM for the second. The second is the more potent here.

`CC(c1ccc(S(C)(=O)=O)cc1)n1c(=O)[nH]c2ncc(-c3cccc4ncccc34)nc21` (stereo not drawn) [Compound 66, 1-(1-(4-(methylsulfonyl)phenyl)ethyl)-6-(quinolin-5-yl)-1H-imidazo[4,5-b]pyrazin-2(3H)-one] showed an IC50 of over 30 µM.

tested on: not given; test: not given; conditions: not given

First: CNC(=O)c1ccc(-c2cnc3[nH]c(=O)n(CC4CCOCC4)c3n2)cc1 [Compound 142, N-Methyl-4-(2-oxo-3-((tetrahydro-2H-pyran-4-yl)methyl)-2,3-dihydro-1H-imidazo[4,5-b]pyrazin-5-yl)benzamide]
Second: Cc1nc(-c2ccc(-c3cnc4[nH]c(=O)n(CCC5CCOCC5)c4n3)cc2)n[nH]1 [Compound 215, 6-(4-(5-methyl-1H-1,2,4-triazol-3-yl)phenyl)-1-(2-(tetrahydro-2H-pyran-4-yl)ethyl)-1H-imidazo[4,5-b]pyrazin-2(3H)-one]
The melting point of the first is higher: 328 to 330 °C for the first, 290 to 292 °C for the second.

First: O=c1[nH]c2ncc(-c3cccc(-c4nc[nH]n4)c3)nc2n1CC1CCCCC1 [Compound 166, 6-(3-(1H-1,2,4-Triazol-3-yl)phenyl)-1-(cyclohexylmethyl)-1H-imidazo[4,5-b]pyrazin-2(3H)-one]
Second: O=c1[nH]c2ncc(-c3ccc(-c4ncc[nH]4)cc3)nc2n1CC1CCCCC1 [Compound 156, 6-(4-(1H-Imidazol-2-yl)phenyl)-1-(cyclohexylmethyl)-1H-imidazo[4,5-b]pyrazin-2(3H)-one]
The melting point of the first is lower: 305 to 307 °C for the first, 349 to 351 °C for the second.

First: Cl.O=c1[nH]c2ncc(-c3ccc(-c4nnc[nH]4)cc3)nc2n1CCN1CCCCC1
Second: Cl.NCc1nc(-c2ccc(-c3cnc4[nH]c(=O)n(CC5CCCCC5)c4n3)cc2)n[nH]1
The melting point of the first is lower: 194 to 197 °C for the first, 326 to 329 °C for the second.

First: O=c1[nH]c2ncc(-c3ccc(O)cc3)nc2n1CCO [Compound 105, 1-(2-Hydroxyethyl)-6-(4-hydroxyphenyl)-1H-imidazo[4,5-b]pyrazin-2(3H)-one]
Second: O=C1NCc2cc(-c3cnc4[nH]c(=O)n(CC5CCCCC5)c4n3)ccc21 [Compound 127, 1-(Cyclohexylmethyl)-6-(1-oxoisoindolin-5-yl)-1H-imidazo[4,5-b]pyrazin-2(3H)-one]
The melting point of the first is lower: 308 to 310 °C for the first, 337 to 339 °C for the second.

Compared with `Cc1cc(C(=O)O)ccc1-c1cnc2[nH]c(=O)n(CC3CCCCC3)c2n1` [Compound 141, 4-(3-(Cyclohexylmethyl)-2-oxo-2,3-dihydro-1H-imidazo[4,5-b]pyrazin-5-yl)-3-methyl benzoic acid], `Cc1n[nH]cc1-c1cnc2[nH]c(=O)n(CC3CCOCC3)c2n1` [Compound 182, 6-(3-Methyl-1H-pyrazol-4-yl)-1-((tetrahydro-2H-pyran-4-yl)methyl)-1H-imidazo[4,5-b]pyrazin-2(3H)-one] is lower in melting point: 244 to 247 °C for the first, 222 to 224 °C for the second.

Compound `O=c1[nH]c2ncc(-c3ccc(-c4nc5ccccc5[nH]4)cc3)nc2n1CC1CCOCC1` [Compound 194, 6-(4-(1H-Benzo[d]imidazol-2-yl)phenyl)-1-((tetrahydro-2H-pyran-4-yl)methyl)-1H-imidazo[4,5-b]pyrazin-2(3H)-one] has a melting point of over 300 °C.
